Measured values taken from patent US20220380310A1, “P2X7R ANTAGONISTS” (priority 2019, published 2022).
Counter-ions that a name gives are not always drawn.

Biological target: T1, Human P2X4 receptor (P2X4R) (Homo sapiens, UniProt Q99571)
T1 construct: expressed in transfected cells; host or cells: HEK-293
T1 sequence (Q99571 1-388): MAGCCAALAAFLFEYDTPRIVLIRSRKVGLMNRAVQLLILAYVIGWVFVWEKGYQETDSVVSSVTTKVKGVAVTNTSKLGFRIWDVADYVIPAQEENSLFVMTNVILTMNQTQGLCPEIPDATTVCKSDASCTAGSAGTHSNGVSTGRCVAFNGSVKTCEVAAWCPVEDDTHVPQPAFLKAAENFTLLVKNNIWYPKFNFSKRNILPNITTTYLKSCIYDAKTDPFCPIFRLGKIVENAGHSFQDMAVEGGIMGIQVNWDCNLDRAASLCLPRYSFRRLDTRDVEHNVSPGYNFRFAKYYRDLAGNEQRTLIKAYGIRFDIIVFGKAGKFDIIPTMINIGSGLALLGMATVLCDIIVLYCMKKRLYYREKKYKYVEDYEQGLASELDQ
Experiment: Receptor-mediated calcium entrance assay (Calcium Assay), P2X4R transfected HEK-293 cells
Assay type: cell-based
Settings: HEK293, compound at 5 μM, 1 mM ATP stimulus, read-out: Percentage of activity remains in the presence of the compound at 5 μM, P2X4R (Calcium Assay)
From the text: Human P2X1 receptor (P2X1R) is a member of P2X family. […] Thus, the calcium assay was used. In the calcium assay, P2X receptor activation leads to opening of ion channels, which increases intracellular calcium concentration. The increased intracellular calcium concentration can be detected by a calcium indicator dye such as Fluo-4 or Fluo-8. Molecular Probes™ Fluo-4, AM (Cat. No. F14201 from Fisher Scientific) was used in the assay. The procedures were similar as described in the Yo-Pro-1 assay until day 4. The construct of P2X1R for transient transfection to HEK-293 cells was the courtesy from Dr. Richard J. Evans laboratory (J. Biol. Chem. 279:9043-9055). After transfection and expression, on day 4 cells were washed twice by Ca-HBSS (The composition (in mM) was NaCl 135, HEPES 10, D-glucose 10, KCl 5.4, CaCl2 2, and MgCl2 1, pH to 7.4 by NaOH) and incubated in dye loading solution (The solution contained 2.5 μM Fluo-4, 1 mM probenecid, and 1× PowerLoad (Cat. No. P10020 from Fisher Scientific) in Ca-HBSS) for 70 minutes at 37° C. Then the extracellular loading dye was washed away and cells were incubated at Ca-HBSS containing 1 mM probenecid for 30 minutes. Before the final steps, probenecid was washed away with Ca-HBSS. The assay was performed by adding 25 μl of Ca-HBSS followed by 25 μl of various test compounds. At this point, the base level of fluorescence was obtained through the microplate reading—the base microplate reading for this assay. At the end, the stimulus (ATP at 20 μM was the final concentration for P2X1R) was added to activate the P2X1R. Activation of P2X1R opened the channel to allow influx of calcium, which was represented by fluorescence increases that were measured by the microplate device with excitation at 475 nm and emission wavelength in the range of 500-550 nm. The data were analyzed the same way as described before: The result of each well was first normalized by its corresponding base microplate reading. Then, the negative control signal was subtracted from. In the negative control, the test compound and the stimulus were replaced by Ca-HBSS. […] An average of six highest values of the plate (AVG) were considered as 100% and the value of each well was divided by AVG and presented as the relative values in percentages.
Human P2X4 receptor (P2X4R) construct (J. Biol. Chem. 290, 7930-7942) was transiently transfected to HEK-293 cells and the calcium assay was performed as described above. When 1 mM ATP was used as stimulus, an increased receptor mediated activity leading to intracellular calcium elevation can be seen in less than 10 minutes.

| Structure (SMILES) | remaining activity at 5 µM |
| --- | --- |
| O=C(CCc1ccccc1)NC1CCCN(S(=O)(=O)c2ccc(OCc3ccccc3)cc2)C1 (stereo not shown) [#4] | 56.9% |
| O=C(CCc1ccccc1)NC1CCCN(S(=O)(=O)c2ccc(N3CCCCC3)cc2)C1 (stereo not shown) [#5] | 53.1% |
| O=S(=O)(c1ccccc1)C1CN(S(=O)(=O)c2ccc(N3CCCCC3)cc2)C1 [#10] | 69.5% |
| O=S(=O)(c1ccccc1)C1CN(S(=O)(=O)c2ccc(N3CCOCC3)cc2)C1 [#11] | 59.6% |
| O=C(CCc1ccccc1)NC1CCCN(S(=O)(=O)c2ccc(N3CCOCC3)cc2)C1 (stereo not shown) [#12] | 69.1% |
| O=C1CCC(N2Cc3c(NC(=O)CCc4ccccc4)cccc3C2=O)C(=O)N1 (stereo not shown) [#16] | 60.7% |
| CN1CCN(c2ccc(S(=O)(=O)N3CCCC(NC(=O)CCc4ccccc4)C3)cc2)CC1 (stereo not shown) [#18] | 61.6% |
| O=C(NCCc1ccccc1)C1CCN(S(=O)(=O)c2ccc(N3CCCCC3)cc2)CC1 [#20] | 50.6% |
| CC(C)(C)OC(=O)N1CCN(c2ccc(S(=O)(=O)N3CCC(C(=O)NCCc4ccccc4)CC3)cc2)CC1 [#22] | 42.1% |
| O=C(NCCc1ccccc1)C1CCN(S(=O)(=O)c2ccc(N3CCOCC3)cc2)CC1 [#23] | 70.7% |
| O=C(NCCc1ccccc1)C1CCCN(S(=O)(=O)c2ccc(N3CCOCC3)cc2)C1 (stereo not shown) [#24] | 68.1% |
| O=C(NCCc1ccccc1)C1CCCN(S(=O)(=O)c2ccc(N3CCCC3)cc2)C1 (stereo not shown) [#25] | 61% |
| CCCCNc1ccc(S(=O)(=O)N2CCC(C(=O)O)CC2)cc1 [#27] | 59.9% |
| NC(=O)c1cc(Br)cc(N2CCOCC2)c1 [#28] | 85.4% |
| O=C(CCc1ccccc1)N1CCN(S(=O)(=O)c2ccc(F)cc2)CC1 [#30] | 76.8% |
| O=C(CCc1ccccc1)N1CCN(S(=O)(=O)c2ccc(N3CCOCC3)cc2)CC1 [#32] | 91% |
| O=C(CCc1ccccc1)NC1CCCN(S(=O)(=O)c2ccc(N3CCC(Oc4ccccc4)CC3)cc2)C1 (stereo not shown) [#38] | 71.1% |
| CC(C)OC1CCN(c2ccc(S(=O)(=O)N3CCCC(NC(=O)CCc4ccccc4)C3)cc2)CC1 (stereo not shown) [#39] | 68.2% |
| CC1CCN(c2ccc(S(=O)(=O)N3CCCC(NC(=O)CCc4ccccc4)C3)cc2)CC1 (stereo not shown) [#40] | 62.9% |
| O=C(CCc1ccccc1)NC1CCCN(S(=O)(=O)c2ccc(N3CCCCC3)c(Cl)c2)C1 (stereo not shown) [#45] | 61.9% |
| O=C(CCc1ccccc1)NC1CCCN(S(=O)(=O)c2ccc(N3CCC(F)(F)CC3)cc2)C1 (stereo not shown) [#46] | 75% |
| CC(C)N(C(C)C)S(=O)(=O)c1ccc(N2CCCC(NC(=O)CCc3ccccc3)C2)cc1 (stereo not shown) [#49] | 35.3% |
| NS(=O)(=O)c1ccc(N2CCCC(NC(=O)CCc3ccccc3)C2)cc1 (stereo not shown) [#53] | 49.7% |

Second part, the molecule after the results:

| remaining activity at 5 µM | Structure (SMILES) |
| --- | --- |
| 71.9% | CS(=O)(=O)c1ccc(N2CCCC(NC(=O)CCc3ccccc3)C2)cc1 (stereo not shown) [#1] |
| 56.4% | COc1ccc(S(=O)(=O)N2CCCC(NC(=O)CCc3ccccc3)C2)cc1 (stereo not shown) [#2] |
| 67% | O=C(CCc1ccccc1)NC1CCCN(S(=O)(=O)c2ccc(F)cc2)C1 (stereo not shown) [#3] |
| 98.9% | CC(C)COc1ccc(S(=O)(=O)N2CCCC(NC(=O)CCc3ccccc3)C2)cc1 (stereo not shown) [#6] |
| 76.8% | CC(C)S(=O)(=O)c1ccc(N2CCCC(NC(=O)CCc3ccccc3)C2)cc1 (stereo not shown) [#7] |
| 50.9% | O=C(CCc1ccccc1)NC1CCCN(S(=O)(=O)Cc2ccc(Br)cc2)C1 (stereo not shown) [#8] |
| 84.5% | O=C(CCc1ccccc1)NC1CCCN(S(=O)(=O)c2ccc(-n3cc(Br)cn3)cc2)C1 (stereo not shown) [#9] |
| 88.8% | O=C(CCc1ccccc1)NC1CCCN(S(=O)(=O)c2ccc(N3CCCC3)cc2)C1 (stereo not shown) [#13] |
| 70.9% | CN(C)c1ccc(S(=O)(=O)N2CCCC(NC(=O)CCc3ccccc3)C2)cc1 (stereo not shown) [#14] |
| 63.8% | CCCCNc1ccc(S(=O)(=O)N2CCCC(NC(=O)CCc3ccccc3)C2)cc1 (stereo not shown) [#15] |
| 77.6% | COCCOc1ccc(S(=O)(=O)N2CCCC(NC(=O)CCc3ccccc3)C2)cc1 (stereo not shown) [#17] |
| 31% | O=C(NCCc1ccccc1)C1CCN(S(=O)(=O)c2ccc(N3CCCC3)cc2)CC1 [#21] |
| 67.1% | O=C(CCc1ccccc1)N1CCNCC1 [#29, hydrochloride] |
| 81.8% | CC(C)(C)OC(=O)N1CCN(c2ccc(S(=O)(=O)N3CCN(C(=O)CCc4ccccc4)CC3)cc2)CC1 [#31] |
| 83.9% | O=C(CCc1ccccc1)N1CCN(S(=O)(=O)c2ccc(NC3CCCCC3)cc2)CC1 [#33] |
| 53.8% | O=C(CCc1ccccc1)N1CCN(S(=O)(=O)c2ccc(N3CCCCC3)cc2)CC1 [#34] |
| 70.7% | O=C(CCc1ccccc1)N1CCN(S(=O)(=O)c2ccc(N3CCCC3)cc2)CC1 [#35] |
| 72.2% | CC(C)(C)OC(=O)N1CCN(c2ccc(S(=O)(=O)N3CCCC(C(=O)NCCc4ccccc4)C3)cc2)CC1 (stereo not shown) [#36] |
| 54.8% | CCOc1ccc(S(=O)(=O)N2CCCC(NC(=O)CCc3ccccc3)C2)cc1 (stereo not shown) [#37] |
| 39.9% | CC(C)(C)OC(=O)N1CCC(C2CCN(c3ccc(S(=O)(=O)N4CCCC(NC(=O)CCc5ccccc5)C4)cc3)CC2)CC1 (stereo not shown) [#41] |
| 55.8% | O=C(CCc1ccccc1)NC1CCCN(S(=O)(=O)c2ccc(N3CCC(C(F)(F)F)CC3)cc2)C1 (stereo not shown) [#42] |
| 48.4% | O=C(CCc1ccccc1)NC1CCCN(S(=O)(=O)c2ccc(F)c(Cl)c2)C1 (stereo not shown) [#43] |
| 63.5% | CC1CCCN(c2ccc(S(=O)(=O)N3CCCC(NC(=O)CCc4ccccc4)C3)cc2)C1 (stereo not shown) [#44] |
| 93.3% | CC1CCCCN1c1ccc(S(=O)(=O)N2CCCC(NC(=O)CCc3ccccc3)C2)cc1 (stereo not shown) [#47] |
| 84.3% | O=C(CCc1ccccc1)NC1CCCN(c2ccc(S(=O)(=O)Nc3ccccc3)cc2)C1 (stereo not shown) [#50] |
| 71.3% | O=C(CCc1ccccc1)NC1CCCN(c2ccc(S(=O)(=O)NC3CCCCC3)cc2)C1 (stereo not shown) [#51] |
| 52.8% | O=C(CCc1ccccc1)NC1CCCN(c2ccc(S(=O)(=O)NCc3ccco3)cc2)C1 (stereo not shown) [#52] |
| 63.3% | O=C(CCc1ccccc1)NC1CCCN(c2ccc(S(=O)(=O)N3CCCCC3)cc2)C1 (stereo not shown) [#54] |
| 37.7% | O=C(CCc1ccccc1)NC1CCCN(c2ccc(S(=O)(=O)N3CCCC3)cc2)C1 (stereo not shown) [#55] |
